Values quoted from earlier work as cited in US5773449A, “Thioquinolone compounds which have useful pharmaceutical activity” (Zenyaku Kogyo Kabushiki Kaisha, priority 1994, dated 1998).

System: peptic ulcer
Conditions: H2-blocker / proton-pump inhibitor; cited from earlier work

In the case of `COc1ccc2[nH]c([S+]([O-])Cc3ncc(C)c(OC)c3C)nc2c1` (stereo not shown) [omeprazole], the cure rate is listed as 80-90%.
